Reference: BindingDB's records for PubMed 1586393 (U. 109, 1992)

Target: D(3) dopamine receptor (Homo sapiens, UniProt P35462)
Sequence (P35462 as listed by the source): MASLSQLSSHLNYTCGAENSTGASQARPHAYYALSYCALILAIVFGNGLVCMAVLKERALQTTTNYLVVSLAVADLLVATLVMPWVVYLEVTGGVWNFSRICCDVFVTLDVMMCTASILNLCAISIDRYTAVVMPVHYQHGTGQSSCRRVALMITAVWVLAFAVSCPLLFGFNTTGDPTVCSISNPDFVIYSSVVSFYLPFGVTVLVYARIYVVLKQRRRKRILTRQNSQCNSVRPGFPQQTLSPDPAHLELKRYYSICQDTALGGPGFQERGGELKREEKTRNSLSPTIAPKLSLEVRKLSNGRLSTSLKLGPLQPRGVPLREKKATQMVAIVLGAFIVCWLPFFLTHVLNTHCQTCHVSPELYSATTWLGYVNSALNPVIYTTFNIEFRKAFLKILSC

Structure (SMILES) | Ki [nM]
CCCN[C@@H]1CCc2c(OC)cccc2[C@@H]1C [CAS_85379-09-5] | 139
CN1CCN(CCCN2c3ccccc3Sc3ccc(S(=O)(=O)N(C)C)cc32)CC1 [NSC_92178] | 1.2
Nc1nc2c(ncn2[C@@H]2O[C@H](COP(=O)(O)OP(=O)(O)NP(=O)(O)O)[C@@H](O)[C@H]2O)c(=O)[nH]1 [Guanylyl imidodiphosphate] | 34
CCCN(CCC)C1C=Cc2c(OC)cccc2C1C (configuration not stated) [CAS_5311190] | 11
NC(=O)C1(N2CCCCC2)CCN(CCCN2c3ccccc3CCc3ccccc32)CC1 [CAS_5942-95-0] | 15
CN(C)S(=O)(=O)c1ccc2c(c1)N(CCCN1CCC(CCO)CC1)c1ccccc1S2 [CAS_39860-99-6] | 0.28
CCS(=O)(=O)c1cc(C(=O)NCC2CCCN2CC2CC2)c(OC)cc1I (configuration not stated) [NSC_122245] | 1.3
